Legend:
wild oat (Avena fatua) = assay: Test C pre-/postemergence: wild oat; assay type: in vivo; details: Postemergence
From the text: (§1) Seeds of plant species selected from blackgrass (Alopecurus myosuroides), bromegrass, downy (downy bromegrass, Bromus tectorum), foxtail, green (green foxtail, Setaria viridis), ryegrass, Italian (Italian ryegrass, Lolium multiflorum), winter wheat (Triticum aestivum), wild oat (Avena fatua), galium (catchweed bedstraw, Galium aparine), bermudagrass (Cynodon dactylon), surinam grass (Brachiaria decumbens), cocklebur (common cocklebur, Xanthium strumarium), corn (Zea mays), large crabgrass (Digitaria sanguinalis), woolly cupgrass (Eriochloa villosa), foxtail, giant (giant foxtail, Setaria faberii), goosegrass (Eleusine indica), johnsongrass (Sorghum halepense), kochia (Kochia scoparia), lambsquarters (Chenopodium album), morningglory (Ipomoea coccinea), nightshade (eastern black nightshade, Solanum ptycanthum), nutsedge, yellow (yellow nutsedge, Cyperus esculentus), pigweed (Amaranthus retroflexus), ragweed (common ragweed, Ambrosia elation), soybean (Glycine max), common (oilseed) sunflower (Helianthus annuus), Russian thistle (Salsola kali) and velvetleaf (Abutilon theophrasti) were planted into a blend of loam soil and sand and treated preemergence with test chemicals formulated in a non-phytotoxic solvent mixture which included a surfactant.
(§2) At the same time, plants selected from these crop and weed species and also barley (winter barley, Hordeum vulgare), canarygrass (Phalaris minor), chickweed (common chickweed, Stellaria media) windgrass (Apera spica-venti) and deadnettle (henbit deadnettle, Lamium amplexicaule) were planted in pots containing Redi-Earth® planting medium (Scotts Company, 14111 Scottslawn Road, Marysville, Ohio 43041) comprising spaghnum peat moss, vermiculite, wetting agent and starter nutrients and treated with postemergence applications of test chemicals formulated in the same manner. Plants ranged in height from 2 to 18 cm (1- to 4-leaf stage) for postemergence treatments.
(§3) Treated plants and controls were maintained in a greenhouse for 13 to 15 days, after which time all species were compared to controls and visually evaluated. Plant response ratings, summarized in Table C, are based on a scale of 0 to 100 where 0 is no effect and 100 is complete control. A dash (-) response means no test result.

[1] = system: lambsquarters (Chenopodium album); assay: Test C pre-/postemergence: lambsquarters; assay type: in vivo
From the text: as §1, §2, §3

[2] = 31 g ai/ha, scale 0 to 100 (0 no effect, 100 complete control)
[3] = 62 g ai/ha, scale 0 to 100 (0 no effect, 100 complete control)
[4] = 125 g ai/ha, scale 0 to 100, 0 no effect, 100 complete control
[5] = Postemergence, 31 g ai/ha, scale 0 to 100 (0 no effect, 100 complete control)
[6] = Postemergence, 62 g ai/ha, scale 0 to 100 (0 no effect, 100 complete control)
[7] = Postemergence, 125 g ai/ha, scale 0 to 100, 0 no effect, 100 complete control
[8] = Postemergence, 250 g ai/ha, scale 0 to 100
[9] = Preemergence, 31 g ai/ha, scale 0 (no effect) to 100 (complete control)
[10] = Preemergence, 62 g ai/ha, scale of 0 to 100, 0 is no effect, 100 is complete control
[11] = Preemergence, 125 g ai/ha, scale 0 to 100, 0 no effect, 100 complete control

| Compound | Plant response rating, Oat, Wild (wild oat (Avena fatua); [2]) | Plant response rating, Oat, Wild (wild oat (Avena fatua); [3]) | Plant response rating, Oat, Wild (wild oat (Avena fatua); [4]) | Plant response rating, Oat, Wild (wild oat (Avena fatua); 250 g ai/ha, scale 0 to 100) | Plant response rating, Lambsquarters [1, 5] | Plant response rating, Lambsquarters [1, 6] | Plant response rating, Lambsquarters [1, 7] | Plant response rating, Lambsquarters [1, 8] | Plant response rating, Oat, Wild (wild oat (Avena fatua); 250 g ai/ha, scale 0 to 100 (0 no effect, 100 complete control)) | Plant response rating, Lambsquarters ([1]; Postemergence, 250 g ai/ha, scale 0 to 100 (0 no effect, 100 complete control)) | Plant response rating, Lambsquarters [1, 9] | Plant response rating, Lambsquarters [1, 10] | Plant response rating, Lambsquarters [1, 11] | Plant response rating, Lambsquarters ([1]; Preemergence, 250 g ai/ha, scale 0 to 100, 0 no effect, 100 complete control) | Plant response rating, Lambsquarters ([1]; Preemergence, 16 g ai/ha, scale 0 (no effect) to 100 (complete control)) |
| --- | --- | --- | --- | --- | --- | --- | --- | --- | --- | --- | --- | --- | --- | --- | --- |
| Cc1nn(-c2ccc(C(F)(F)F)c(F)c2)nc1Cc1ccnc(C(F)(F)F)c1 [Compound 162] | 40 | 60 | 60 | 90 | 95 | 95 | 98 | 98 | – | – | – | – | – | – | – |
| CCc1nn(-c2ccc(F)cc2)nc1Oc1ccnc(C(F)(F)F)c1 [Compound 166] | 15 | 20 | – | 30 | 60 | 95 | 95 | 98 | – | – | – | – | – | – | – |
| CCCc1nn(-c2ccc(C(F)(F)F)c(F)c2)nc1Oc1ccnc(C(F)(F)F)c1 [Compound 185] | 25 | 30 | 55 | – | 80 | 80 | 85 | – | 60 | 95 | 100 | 100 | 100 | 100 | – |
| CCOc1nn(-c2ccc(Br)cc2)nc1Cc1ccnc(C(F)(F)F)c1 [Compound 189] | – | – | – | – | – | – | – | – | – | – | 85 | 90 | 90 | – | 45 |

Reference: US9302999B2, “Substituted triazoles as herbicides” (E. I. DU PONT DE NEMOURS AND COMPANY, priority 2012, dated 2016)
